Data taken from patent publication US20060251751A1, “Sophoridine and its use as an analgesic” (SHANGHAI FANGDA PHARMACEUTICALS, LTD., priority 2001, published 2006).
Marks after values point to notes of the source that are not given here.

Tests used:
mice [1] = test: Comparison of analgesic effects and synergistic activity between sophoridine and morphine (hot plate method); format: in vivo; details: for Pain thresholds before admin.: before admin. (baseline)
Procedure: In five experimental groups, animals of each group received 25, 20, 15, 10 and 5 mg/kg of the sophoridine suspended in a normal saline solution, respectively.

Kunming mice = test: Analgesic effect of sophoridine on mice models (acetic acid induced writhing method); format: in vivo; details: for Number of writhe (X ± SD): 0.6% acetic acid i.p.
Procedure: The analgesic activity of sophoridine was also tested in vivo in mice experimental models, using acetic acid induced writhing Method which are known to evaluate the pain in animals. Writhing test is a standard procedure for detecting and comparing analgesic activity in laboratory animals, and generally correlates well with human efficacy.
30 Male and 30 female Kunming mice weighing 18-22 g were used as experimental models. […] Then, the animals randomly divided into six groups, each group includes 10 animals. Five experimental groups intravenously received 25, 20, 15, 10 and 5 mg/Kg of the sophoridine suspended in a normal saline solution via the tail vein, respectively.
The frequency of writhing syndrome was counted for 5 minutes from 15 minutes after the injection of spophoridine or placebo. The control group received treatment only with the solvent (normal saline).

Male Kunming mice = test: Analgesic effect of sophoridine on mice model (hot plate method); format: in vivo; details: for Pain thresholds (seconds) After administration: 10 minutes after administration; for Pain thresholds (seconds) Before administration: before administration (baseline)
Procedure: The analgesic activity of sophoridine was tested in vivo in mice experimental models, using Hot Plate Method, which are known to evaluate the pain in animals.
The method that was used is described by Eddy N. B. and Leimbach D. (J. Pharm. Exp. Ther. 107: 385-393, 1953) and somewhat modification is made in the present invention.
Male Kunming mice weighing 18-22 g were used as experimental model. The analgesic effect of the sophoridine was evaluated by analysing the behavioral response of the animals on a hot surface at 55° C.±0.5° C. The alkaloid compounds being tested were administered intravenously through the tail vein 10 minutes before starting the test.
Briefly, the process consisted of placing the animals on the plate and keeping them in a plastic cylinder 22 cm diameter and 11 cm high. The time the animals took to lick a paw or jump off the hot surface was determined. The animals were selected before starting the test that those with response latency (the pain threshold values before administrations) longer than 30 seconds were excluded from the experiment. The certificated animals divided into six groups (10 animals/group). Five experimental groups received 25, 20, 15, 10 and 5 mg/kg of the sophoridine suspended in a normal saline solution, respectively. The control group received treatment only with the solvent (normal saline).
10 minutes after administering the alkaloids being tested, the test was repeated and the maximum response latency time (seconds) took the animals to lick the hindlimb or jump off and run away was again recorded.

[2] = system: acetylcholine level in central nervous system; test: Preliminary study on mechanism of analgesic effect (acetylcholine level in CNS)
Source text: Therefore, sophoridine and derivatives thereof are also useful for treating patients suffering from neurodegenerative diseases, senile dementia of the Alzheimer's type (SDAT) and Pakinson's disease (PD).

mice [3] = test: Effect of the opioid receptor antagonist naloxone on morphine- and sophoridine-induced analgesia; format: in vivo
Procedure: Following procedures of the previous Examples, screening and grouping of experimental animals was carried out. […] The animals of negative control were injected with normal saline. The pain thresholds (response latency time, seconds, of each animal was recorded at 15, 30, 60, and 90 minutes after administrations, respectively. The results are summarized in Table 4 below.

tumor cells = details: cited from earlier work
[4] = system: patients suffering from advanced cancers; test: Clinical trials in more than 200 patients with advanced cancers; format: in vivo, human
[5] = sophoridine 25 mg/kg i.v., hot plate 55°C

O=C1CCC[C@@H]2[C@H]3CCCN4CCC[C@H](CN12)[C@@H]34 [Sophoridine]
Pain thresholds after admin. (seconds) 15 min. (mice [1]; sophoridine 5 mg/kg): 17.5 ± 3.3 s | Pain thresholds after admin. (seconds) 30 min. (mice [1]; sophoridine 5 mg/kg): 16.6 ± 6.5 s | Pain thresholds after admin. (seconds) 60 min. (mice [1]; sophoridine 5 mg/kg): 16.0 ± 4.5 s | Pain thresholds after admin. (seconds) 90 min. (mice [1]; sophoridine 5 mg/kg): 19.3 ± 5.4 s | Pain thresholds before admin. (mice [1]; sophoridine 5 mg/kg): 17.45 ± 2.6 s | Pain thresholds after admin. (seconds) 15 min. (mice [1]; sophoridine 10 mg/kg): 20.2 ± 7.2 s | Pain thresholds after admin. (seconds) 30 min. (mice [1]; sophoridine 10 mg/kg): 28.0 ± 18.3 s | Pain thresholds after admin. (seconds) 60 min. (mice [1]; sophoridine 10 mg/kg): 12.6 ± 5.9 s | Pain thresholds after admin. (seconds) 90 min. (mice [1]; sophoridine 10 mg/kg): 20.5 ± 15.0 s | Pain thresholds before admin. (mice [1]; sophoridine 10 mg/kg): 18.6 ± 4.9 s | Pain thresholds after admin. (seconds) 15 min. (mice [1]; sophoridine 15 mg/kg): 32.9 ± 19.2 s | Pain thresholds after admin. (seconds) 30 min. (mice [1]; sophoridine 15 mg/kg): 31.3 ± 17.5 s | Pain thresholds after admin. (seconds) 60 min. (mice [1]; sophoridine 15 mg/kg): 15.2 ± 10.2 s | Pain thresholds after admin. (seconds) 90 min. (mice [1]; sophoridine 15 mg/kg): 15.8 ± 5.7 s | Pain thresholds before admin. (mice [1]; sophoridine 15 mg/kg): 16.45 ± 3.9 s | Pain thresholds after admin. (seconds) 15 min. (mice [1]; sophoridine 20 mg/kg): 36.8 ± 18.2 s | Pain thresholds after admin. (seconds) 30 min. (mice [1]; sophoridine 20 mg/kg): 24.6 ± 7.7 s | Pain thresholds after admin. (seconds) 60 min. (mice [1]; sophoridine 20 mg/kg): 23.0 ± 9.9 s | Pain thresholds after admin. (seconds) 90 min. (mice [1]; sophoridine 20 mg/kg): 19.3 ± 6.6 s | Pain thresholds before admin. (mice [1]; sophoridine 20 mg/kg): 16.9 ± 2.5 s | Pain thresholds after admin. (seconds) 15 min. (mice [1]; sophoridine 25 mg/kg): 44.3 ± 14.9 s | Pain thresholds after admin. (seconds) 30 min. (mice [1]; sophoridine 25 mg/kg): 28.3 ± 11.4 s | Pain thresholds after admin. (seconds) 60 min. (mice [1]; sophoridine 25 mg/kg): 20.3 ± 4.9 s | Pain thresholds after admin. (seconds) 90 min. (mice [1]; sophoridine 25 mg/kg): 18.8 ± 6.3 s | Pain thresholds before admin. (mice [1]; sophoridine 25 mg/kg): 15.4 ± 4.0 s | analgesic activity compared to morphine hydrochloride (in words) (mice [1]; sophoridine in higher doses, hot plate): comparable or better analgesic activity | Number of writhe (X ± SD) (Kunming mice; sophoridine 5 mg/kg i.v.): 23.2 ± 6.43 | Number of writhe (X ± SD) (Kunming mice; sophoridine 10 mg/kg i.v.): 14.1 ± 9.64 | Number of writhe (X ± SD) (Kunming mice; sophoridine 15 mg/kg i.v.): 9.9 ± 6.3 | Number of writhe (X ± SD) (Kunming mice; sophoridine 20 mg/kg i.v.): 1.5 ± 1.35 | Number of writhe (X ± SD) (Kunming mice; sophoridine 25 mg/kg i.v., counted for 5 minutes from 15 minutes after injection): 0*** | analgesic activity in mice models (in words) (Kunming mice; writhing method, 5-25 mg/kg i.v.): good analgesic activity | analgesic activity in mice models (in words) (Male Kunming mice; hot plate method, 5-25 mg/kg i.v.): good analgesic activity | Pain thresholds (seconds) After administration (Male Kunming mice; sophoridine 5 mg/kg i.v.): 25.8 ± 20.74 s | Pain thresholds (seconds) Before administration (Male Kunming mice; sophoridine 5 mg/kg i.v.): 16.3 ± 6.02 s | Pain thresholds (seconds) After administration (Male Kunming mice; sophoridine 10 mg/kg i.v.): 24.8 ± 15.99 s | Pain thresholds (seconds) Before administration (Male Kunming mice; sophoridine 10 mg/kg i.v.): 11.7 ± 4.59 s | Pain thresholds (seconds) After administration (Male Kunming mice; sophoridine 15 mg/kg i.v.): 38.5 ± 17.19 s | Pain thresholds (seconds) Before administration (Male Kunming mice; sophoridine 15 mg/kg i.v.): 14.7 ± 4.62 s | Pain thresholds (seconds) After administration (Male Kunming mice; sophoridine 20 mg/kg i.v.): 57.1 ± 6.10 s | Pain thresholds (seconds) Before administration (Male Kunming mice; sophoridine 20 mg/kg i.v.): 12.4 ± 4.25 s | Pain thresholds (seconds) After administration (Male Kunming mice; [5]): 48.6 ± 19.14 s | Pain thresholds (seconds) Before administration (Male Kunming mice; [5]): 16.4 ± 6.48 s | acetylcholine level in central nervous system (in words) [2]: significant increasing acetylcholine level | naloxone counteracting the analgesic effect (in words) (mice [3]; naloxone 2.0 mg/kg, morphine 10 mg/kg or sophoridine 20 mg/kg): ineffective in counteracting the effect | Pain thresholds after admin. (seconds) 15 min. (mice [3]; sophoridine alone 20 mg/kg i.v., 15 min.): 34.5 ± 16.2 s | Pain thresholds after admin. (seconds) 30 min. (mice [3]; sophoridine alone 20 mg/kg i.v., 30 min.): 23.8 ± 7.0 s | Pain thresholds after admin. (seconds) 60 min. (mice [3]; sophoridine alone 20 mg/kg i.v., 60 min.): 21.8 ± 8.9 s | Pain thresholds after admin. (seconds) 90 min. (mice [3]; sophoridine alone 20 mg/kg i.v., 90 min.): 18.3 ± 6.6 s | Pain thresholds before admin. (mice [3]; sophoridine alone 20 mg/kg i.v., before admin. (baseline)): 17.9 ± 2.6 s | anti-tumor activities (in words) (tumor cells; Xuemei Li et al. 1987): tumor cell-killing and tumor cell growth-inhibiting activities | effect on functions of hematopoietic and immunological systems (in words) (tumor cells; Xuemei Li et al.): does not inhibit the functions of hematopoietic and immunological systems | effect on pain caused by malignant growth of cancer tissues (in words) [4]: significantly inhibit or alleviate mild to severe pain | effect on proliferation of tumor cells (in words) [4]: inhibit proliferation of tumor cells | side effects of tolerance and addiction (in words) ([4]; higher doses for a long term): did not develop any side effects of tolerance and addiction

O=C1C=CC[C@@H]2[C@H]3CCCN4CCC[C@@H](CN12)[C@@H]34 [sophocarpine]
effect on pain caused by malignant growth of cancer tissues (in words) [4]: significantly inhibit or alleviate mild to severe pain | effect on proliferation of tumor cells (in words) [4]: inhibit proliferation of tumor cells
